Source: ChEMBL document CHEMBL6134840 (J Med Chem, 2025)

Experiments:
[1] = Stability in mouse liver microsome; format: ADME; conditions: microsomes
[2] = Permeability across apical to basal side in human Caco-2 cells; format: ADME, cell-based

Stability [1]: Stable | permeability [2]: Permeable
SMILES: O=S(=O)(Nc1ccc2ccccc2n1)c1ccccc1
